Assay results reported in ChEMBL document CHEMBL5532656, “Novel ligustilide derivatives target quorum sensing system LasR/LasB and relieve inflammatory response against Pseudomonas aeruginosa infection” (Eur J Med Chem, 2024).

assay: Inhibition of quorum sensing system in Pseudomonas aeruginosa PAO1-lasB-gfp at 10 uM relative to control

inhibition [%]	SMILES
47.4	CCCCC1(O)C2=C(C=CCC2)C(=O)N1Cc1ccc(Cl)cc1 (configuration not stated)
37.6	CCCCC1(O)C2=C(C=CCC2)C(=O)N1Cc1ccccc1Cl (configuration not stated)
36.3	CCCCC1(O)C2=C(C=CCC2)C(=O)N1Cc1ccccc1OC (configuration not stated)
30.6	CCCCC1(O)C2=C(C=CCC2)C(=O)N1CCc1c[nH]c2ccc(OC)cc12 (configuration not stated)
31.9	CCCCC1(O)C2=C(C=CCC2)C(=O)N1Cc1cccnc1 (configuration not stated)
16.4	CCCCC1(O)C2=C(C=CCC2)C(=O)N1C1CCCCC1 (configuration not stated)
40.7	CCCCC1(O)C2=C(C=CCC2)C(=O)N1Cc1ccc(C(C)C)cc1 (configuration not stated)
41.5	CCCCC1(O)C2=C(C=CCC2)C(=O)N1Cc1ccc(C)cc1 (configuration not stated)
40.7	CCCCC1(O)C2=C(C=CCC2)C(=O)N1Cc1ccc(OC)cc1 (configuration not stated)
45.2	CCCCC1(O)C2=C(C=CCC2)C(=O)N1Cc1ccc(Br)cc1 (configuration not stated)
21.2	CCCCCN1C(=O)C2=C(CCC=C2)C1(O)CCCC (configuration not stated)
40.5	CCCCC1(O)C2=C(C=CCC2)C(=O)N1Cc1ccc(OCC)cc1 (configuration not stated)
18.1	CCCCC1(O)C2=C(C=CCC2)C(=O)N1CCCCc1ccccc1 (configuration not stated)
15.1	CCCCC1(O)C2=C(C=CCC2)C(=O)N1c1ccccc1 (configuration not stated)
16.7	CCCCC1(O)C2=C(C=CCC2)C(=O)N1C1CCCC1 (configuration not stated)

Further lines, the compound ahead of its results:

SMILES	inhibition [%]
CCCCC1(O)C2=C(C=CCC2)C(=O)N1Cc1cccc(OC)c1 (configuration not stated)	29.4
CCCCC1(O)C2=C(C=CCC2)C(=O)N1C1CC1 (configuration not stated)	20.4
CCCCC1(O)C2=C(C=CCC2)C(=O)N1CCc1c[nH]c2ccc(O)cc12 (configuration not stated)	37.7
CCCCC1(O)C2=C(C=CCC2)C(=O)N1CCc1ccccc1 (configuration not stated)	11.6
CCCCC1(O)C2=C(C=CCC2)C(=O)N1Cc1cccs1 (configuration not stated)	29.7
CCCCC1(O)C2=C(C=CCC2)C(=O)N1Cc1ccc(N(C)C)cc1 (configuration not stated)	35.3
CCCCC1(O)C2=C(C=CCC2)C(=O)N1Cc1ccc(-c2ccccc2)cc1 (configuration not stated)	43.8
CCCCC1(O)C2=C(C=CCC2)C(=O)N1Cc1cccc(Cl)c1 (configuration not stated)	34.2
CCCCC1(O)C2=C(C=CCC2)C(=O)N1CC (configuration not stated)	17.4
CCCCC1(O)C2=C(C=CCC2)C(=O)N1c1ncccn1 (configuration not stated)	35.5
CCCCC1(O)C2=C(C=CCC2)C(=O)N1Cc1ccc(O)cc1 (configuration not stated)	40.2
CCCCC1(O)C2=C(C=CCC2)C(=O)N1Cc1ccc(C#N)cc1 (configuration not stated)	44.3
CCCCC1(O)C2=C(C=CCC2)C(=O)N1Cc1ccc(F)cc1 (configuration not stated)	41.5
CCCCC1(O)C2=C(C=CCC2)C(=O)N1Cc1ccco1 (configuration not stated)	33.9
CCCCC1(O)C2=C(C=CCC2)C(=O)N1Cc1ccccc1C(F)(F)F (configuration not stated)	45.1
CCCCN1C(=O)C2=C(CCC=C2)C1(O)CCCC (configuration not stated)	21.6
CCCCC1(O)C2=C(C=CCC2)C(=O)N1Cc1cccc(F)c1 (configuration not stated)	41
CCCCC1(O)C2=C(C=CCC2)C(=O)N1Cc1ccccc1F (configuration not stated)	40.4
CCCCC1(O)C2=C(C=CCC2)C(=O)N1Cc1cccc(-c2ccccc2)c1 (configuration not stated)	32.9
CCCCC1(O)C2=C(C=CCC2)C(=O)N1Cc1cccc(C(F)(F)F)c1 (configuration not stated)	39.4
C#CCN1C(=O)C2=C(CCC=C2)C1(O)CCCC (configuration not stated)	21.5
CCCCC1(O)C2=C(C=CCC2)C(=O)N1CCC (configuration not stated)	21.1
